Laboratory results published in patent US20240315989A1 (priority 2021, published 2024).
Where “and” joins values, the source holds several entries; their conditions need not be identical. Identical values can stand only once. Like-named read-outs stand apart in the source and are kept apart here.

Experiments:
COVID-19 [1] = tested on: COVID-19
COVID-19 [2] = tested on: COVID-19; remark: listed apart in the source
[3] = cited from earlier work
COVID-19 [4] = settings: cited from earlier work
[5] = cited from earlier work; remark: listed apart in the source
COVID-19 [6] = settings: follow-up questionnaire
[7] = tested on: experimental autoimmune encephalomyelitis (EAE); settings: cited from earlier work
[8] = depending on formulation; cited from earlier work
[9] = tested on: HEK293T cell lines expressing ACE2 and TMPRSS2; settings: FIG. 27; cited from earlier work
[10] = tested on: COVID-19 (SARS-CoV-2 infection); settings: cited from earlier work
[11] = tested on: COVID-19 (SARS-CoV-2 infection)
[12] = tested on: α1-, α2-, β-adrenergic, muscarinic, dopamine D2, histamine H1, GABA-benzodiazepine, opiate, 5-HT1, or 5-HT2 receptors; settings: cited from earlier work
[13] = intent to treat analysis of 1649 participants
[14] = pooled, fluvoxamine vs blinded placebo
[15] = two randomized trials pooled, intent to treat
[16] = Bayesian, moderately optimistic prior
[17] = Intent to Treat Analysis, all randomized
[18] = per protocol, fluvoxamine group

SMILES: COCCCC/C(=N\OCCN)c1ccc(C(F)(F)F)cc1.O=C(O)/C=C\C(=O)O [fluvoxamine, 5-methoxy-4′-(trifluoromethyl)valerophenone-(E)-O-(2-aminoethyl)oxime maleate (1:1)]
- reduction in hospitalizations (COVID-19 [1]; [13]): Summary of the two randomized clinical trial data demonstrate a 25%
- reduction in progression to severe disease with hypoxia ≤92%, ER visit >6 hour (with hypoxia), or hospitalizations (COVID-19 [1]; [13]): reduction in hospitalizations and 36% reduction in progression to severe
- reduction in hospitalizations (COVID-19 [1]; intent to treat, vs placebo): 25%
- Number needed to treat (COVID-19 [1]; pooled): approximately 20
- Hospitalization, Absolute Risk Reduction (COVID-19 [1]; [14]): 3.1%
- Mortality, Absolute Risk Reduction (COVID-19 [1]; [14]): 0.9%
- Progression to Severe COVID-19, Absolute Risk Reduction (COVID-19 [1]; [14]): 5.4%
- Hospitalization, % (COVID-19 [1]; [15]): 9.3%
- Hospitalization, n/N (COVID-19 [1]; [15]): (76/821)
- Mortality, % (COVID-19 [1]; [15]): 2.1%
- Mortality, n/N (COVID-19 [1]; [15]): (17/821)
- Progression to Severe COVID-19 (Hospitalization or ER Visit >6 hr or Hypoxia <92%), % (COVID-19 [1]; [15]): 9.6%
- Progression to Severe COVID-19, n/N (COVID-19 [1]; [15]): (79/821)
- Probability RR <1 (COVID-19 [2]; [16]): 97.2%
- Probability RR ≤0.9 (COVID-19 [2]; [16]): 89.9%
- Probability RR <1 (COVID-19 [2]; Bayesian, weakly neutral prior): 94.1%
- Probability RR ≤0.9 (COVID-19 [2]; Bayesian, weakly neutral prior): 81.6%
- Probability RR <1 (COVID-19 [2]; Frequentist analysis): 98.3%
- Probability RR ≤0.9 (COVID-19 [2]; Frequentist analysis): 91.1%
- Probability of at least a moderate effect (COVID-19 [2]; frequentist meta-analysis): 91.1%
- Probability that fluvoxamine prevents hospitalization (COVID-19 [2]; frequentist meta-analysis): 98.3%
- Nausea, % of patients ([3]; 35,368 people, 66 studies): 15.7%
- Another serious adverse event (suicide attempt, depression, death, accidental injury) ([3]; in vivo): < 0.4%
- Serious adverse events requiring hospitalization ([3]; in vivo): 1.6%
- Serious adverse events, % of people ([3]; taking the medication for a psychiatric disorder): approximately 2.0%
- HR for death vs matched controls (COVID-19 [4]; 95% CI 0.36-0.94): 0.58
- Patients who died, % (COVID-19 [4]; ICU patients, 100 mg three times daily): 58.8%
- Reduced risk of death vs matched controls (COVID-19 [4]; in vivo): 42%
- Patients who died, No. (COVID-19 [4]; of 51 ICU patients, 100 mg three times daily): 30
- volume of distribution [V/F] ([5]; one-compartment model): 928 L
- Free fraction in plasma ([5]; unbound to plasma proteins): 20%
- Ache in chest wall (ribs/sternum) present during the course of COVID-19, % (COVID-19 [6]): (33%)
- Ache in chest wall (ribs/sternum) present within past 48 hours at follow-up, % (COVID-19 [6]): (11%)
- Chest pain that worsens when taking a deep breath, present during the course of COVID-19, % (COVID-19 [6]): (37%)
- Chest pain that worsens when taking a deep breath, present within past 48 hours at follow-up, % (COVID-19 [6]): (17%)
- Chest pressure present during the course of COVID-19, % (COVID-19 [6]): (54%)
- Chest pressure present within past 48 hours at time of follow-up, % (COVID-19 [6]): (17%)
- Chest tightness present during the course of COVID-19, % (COVID-19 [6]): (54%)
- Chest tightness present within past 48 hours at follow-up, % (COVID-19 [6]): (17%)
- Pain deep inside the chest present during the course of COVID-19, % (COVID-19 [6]): (31%)
- Pain deep inside the chest present within past 48 hours at follow-up, % (COVID-19 [6]): (9%)
- Sharp chest pains present during the course of COVID-19, % (COVID-19 [6]): (33%)
- Sharp chest pains present within past 48 hours at follow-up, % (COVID-19 [6]): (13%)
- Severity of EAE ([7]; rats, also when treatment began 12 days post-induction): reduces the severity
- IFN-γ serum levels ([7]; vs untreated EAE rats): decrease
- IL-4 serum levels ([7]; vs untreated EAE rats): increase
- half-life [8]: 9 to 28 h
- HEK293T-ACE2-TMPRSS2 cell IC50 [9]: 4.579 µg/mL
- Incidence of hospitalization ([10]; 50 mg twice daily, 14 days): 0%
- Patients hospitalized, number of 65 ([10]; 14 days): no patients and 0 of 65
- Patients hospitalized, number of 65 ([10]; 14 days, listed as FLV): 0/65
- Persistent residual / ongoing symptoms at 14 days ([10]; Day 14): 0%
- Persons with persistent residual / ongoing symptoms at 14 days, number of 65 ([10]; Day 14): 0/65 and zero
- Persons with persistent residual / ongoing symptoms at 14 days, number of 65 ([10]; Day 14, listed as FLV): 0/65
- Hospitalization or extended emergency room visit due to COVID-19, HR [11]: 0.77
- Patients with any interaction with a COVID-19 emergency setting, No. [11]: 180
- Period of hospitalization, estimated treatment effect [11]: 1.23
- Progression to severe COVID (FDA categorization), % of patients [11]: 10.1%
- Proportion of primary outcome events, % [11]: 3.6%
- Time on mechanical ventilator, estimated treatment effect [11]: 1.03
- Primary outcome events (retention in COVID-19 emergency setting >6 h or transfer to tertiary hospital), No. of patients ([11]; 100 mg): 79
- Proportion of primary outcome events, % ([11]; 24 h): 10.5%
- Probability of superiority (event rate lower than placebo) ([11]; ITT population): 99.8%
- Primary outcome events, % of patients ([11]; ITT, of 741, 28 days): 11%
- Primary outcome events, n/N [11, 17]: (79/741)
- Proportion of primary outcome events (retention in COVID-19 emergency setting >6 hours or transfer to tertiary hospital), % [11, 17]: 10.7%
- Primary outcome events (retention in a COVID-19 emergency setting or transfer to tertiary hospital due to COVID-19), % ([11]; Intention-to-treat analysis, N 741): (11%)
- Primary outcome events, n/N ([11]; Modified Intent to Treat Analysis, received ≥24 hours of study medicine): (78/740)
- Primary outcome events (retention in a COVID-19 emergency setting or transfer to tertiary hospital due to COVID-19), % ([11]; Modified intention-to-treat analysis, N 740): (11%)
- Primary outcome events, n/N ([11]; Per Protocol, received 80% of study medicine prior to any deterioration): (20/548)
- All-cause hospitalization, n/N ([11]; TOGETHER, fluvoxamine group): 76/741
- Death, intention to treat, % ([11]; TOGETHER, fluvoxamine group): (2%)
- Death, intention to treat, n/N ([11]; TOGETHER, fluvoxamine group): 17/741
- Hospitalized for COVID, n/N ([11]; TOGETHER, fluvoxamine group): 75/741
- Probability that event rate was lower than placebo ([11]; mITT population): 99.7%
- Time to death ([11]; median, fluvoxamine group): 17 days
- Death, per protocol, % [11, 18]: (<1%)
- Death, per protocol, n/N [11, 18]: 1/548
- Deaths, No. ([11]; per-protocol population): one
- Reduction in risk of death (mortality) ([11]; per-protocol, took at least 80% of pills): 91%
- Deaths, No. ([11]; primary intention-to-treat analysis): 17
- Number needed to treat ([11]; primary outcome): 20
- Hospitalization or extended emergency room visit due to COVID-19, n_Fluvoxamine ([11]; subgroup Age <=50): 23
- Hospitalization or extended emergency room visit due to COVID-19, HR ([11]; subgroup Age <=50, vs placebo): 0.57
- Hospitalization or extended emergency room visit due to COVID-19, HR ([11]; subgroup Age >50, vs placebo): 0.67
- Hospitalization or extended emergency room visit due to COVID-19, n_Fluvoxamine ([11]; subgroup BMI (Kg/m^2) >30): 44
- Hospitalization or extended emergency room visit due to COVID-19, HR ([11]; subgroup BMI (Kg/m^2) >30, vs placebo): 0.64
- Hospitalization or extended emergency room visit due to COVID-19, HR ([11]; subgroup Cardiovascular disease N, vs placebo): 0.67
- Hospitalization or extended emergency room visit due to COVID-19, n_Fluvoxamine ([11]; subgroup Cardiovascular disease Y): 0
- Hospitalization or extended emergency room visit due to COVID-19, n_Fluvoxamine ([11]; subgroup Chronic kidney disease N): 78
- Hospitalization or extended emergency room visit due to COVID-19, n_Fluvoxamine ([11]; subgroup Chronic kidney disease Y): 1
- Hospitalization or extended emergency room visit due to COVID-19, n_Fluvoxamine ([11]; subgroup Sex Female): 28
- Hospitalization or extended emergency room visit due to COVID-19, n_Fluvoxamine ([11]; subgroup Sex Male): 51
- Hospitalization or extended emergency room visit due to COVID-19, HR ([11]; subgroup Sex Male, vs placebo): 0.80
- Hospitalization or extended emergency room visit due to COVID-19, HR ([11]; subgroup Smoking status Current, vs placebo): 0.80
- Hospitalization or extended emergency room visit due to COVID-19, n_Fluvoxamine ([11]; subgroup Smoking status Former): 10
- Hospitalization or extended emergency room visit due to COVID-19, HR ([11]; subgroup Smoking status Former, vs placebo): 0.46
- Hospitalization or extended emergency room visit due to COVID-19, n_Fluvoxamine ([11]; subgroup Time from onset of symptoms 0-3 days): 30
- Time to death, estimated treatment effect ([11]; unadjusted hazard ratio, fluvoxamine vs placebo): 0.80
- Death, intention to treat, estimated treatment effect ([11]; unadjusted odds ratio, fluvoxamine vs placebo): 0.69
- Affinity for α1-, α2-, β-adrenergic, muscarinic, dopamine D2, histamine H1, GABA-benzodiazepine, opiate, 5-HT1, or 5-HT2 receptors [12]: negligible affinity
